According to article PMC7176092, “Development of the first in vivo GPR17 ligand through an iterative drug discovery pipeline: A novel disease-modifying strategy for multiple sclerosis” (PLoS ONE, 2020):
Where two headings read alike, the source gives them in different places.

Legend:
CXCR5 = biological target: T1, CXCR5 (Homo sapiens, UniProt P32302); assay: Cellular functional assay CXCR5
T1 sequence (P32302 1-372): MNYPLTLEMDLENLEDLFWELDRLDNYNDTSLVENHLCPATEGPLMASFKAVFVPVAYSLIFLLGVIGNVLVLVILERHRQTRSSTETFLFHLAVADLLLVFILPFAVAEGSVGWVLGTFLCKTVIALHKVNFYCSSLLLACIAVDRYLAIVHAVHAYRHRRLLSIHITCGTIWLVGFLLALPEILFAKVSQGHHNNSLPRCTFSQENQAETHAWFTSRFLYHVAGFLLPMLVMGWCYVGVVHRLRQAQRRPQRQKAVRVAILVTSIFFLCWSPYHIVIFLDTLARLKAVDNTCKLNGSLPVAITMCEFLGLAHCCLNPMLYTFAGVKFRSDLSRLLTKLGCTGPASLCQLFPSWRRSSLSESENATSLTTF

APJ = biological target: T2, APJ (Homo sapiens, UniProt P35414); assay: Binding assay APJ; conditions: 100 nM
T2 construct: Eurofins Cerep (external service)
T2 sequence (P35414 1-380): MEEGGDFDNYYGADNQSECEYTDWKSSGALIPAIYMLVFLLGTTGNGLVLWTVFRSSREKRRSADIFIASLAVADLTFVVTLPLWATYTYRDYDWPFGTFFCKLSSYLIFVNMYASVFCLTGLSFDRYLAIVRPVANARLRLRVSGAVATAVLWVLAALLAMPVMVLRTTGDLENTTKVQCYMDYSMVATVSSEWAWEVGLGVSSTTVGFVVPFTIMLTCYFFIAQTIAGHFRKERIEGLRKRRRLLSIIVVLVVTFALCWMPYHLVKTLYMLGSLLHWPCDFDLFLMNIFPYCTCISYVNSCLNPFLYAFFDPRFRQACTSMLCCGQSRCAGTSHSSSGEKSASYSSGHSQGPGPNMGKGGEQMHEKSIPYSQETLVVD

Agonist Response (% of Control) (CXCR5; antagonist effect, 100 nM, single replicates 1st and 2nd, 0.1 µM): 99.7%
inhibition at 0.1 µM (CXCR5; read-out: % Inhibition of control agonist response): 1.2%
activity at 0.1 µM (CXCR5; read-out: Agonist Response (% of Control), Mean, antagonist effect, 100 nM, mean of 2): 102%
activity at 0.1 µM (CXCR5; read-out: Agonist Response (% of Control), antagonist effect, 100 nM, single replicates 1st and 2nd): 103%
remaining activity at 0.1 µM (APJ; mean of 2, read-out: % Of control specific binding, Mean): 107%
inhibition at 0.1 µM (APJ; read-out: % Inhibition of control specific binding): -7%
% Of control specific binding (APJ; single replicates 1 and 2, 0.1 µM): 105.7%
remaining activity at 0.1 µM (APJ; single replicates 1 and 2, read-out: % Of control specific binding): 108%
SMILES: Cc1ccc(-c2nnc(SCC(=O)Nc3nccs3)[nH]2)cc1 [Compound 9]
